From US20100055078A1, “METHODS OF MAKING A TRANSPLANTABLE BONE REPAIR SYSTEM USING MULTIPOTENT STEM CELLS” (The Government of the U.S.A, as represented by the …, priority 2008, published 2010)

Key:
Assay type in all cases: cell-based
[1] = system: MC3T3-E1 osteoblasts; assay: [3H]-thymidine incorporation into DNA in wounded mineralized cell layers (in vitro fracture model); conditions: for increase of thymidine incorporation: wounded MC3T3-E1, 24 hour treatment, FGF-2 0.2 ng/ml, TGFβ 2 ng/ml, PGE2; for change in DNA synthesis (thymidine incorporation), in words: wounded MC3T3-E1, within twenty-four hours of treatment
Method: (§1) Cell culture: Cloned MC3T3-E1 osteoblasts (Kodama et al., J. Cell. Physiol. 112:89-95, 1992) were maintained in alpha MEM medium (Catalog No. MT15012CV Fisher Scientific, Pittsburgh, Pa.) containing 10% fetal bovine serum (FBS), 1% antibiotic solution and 1% glutamine solution and subcultured every 3 to 4 days. The cells were subcultured by incubating with trypsin for five minutes and resuspending at a concentration of 3×10^5 cells/ml. For experiments, cells were grown in the same medium as above, using multiwell plates (35 mm for microscopy and 22 mm for thymidine uptake studies). Each well contained a round 12 mm glass cover slip. Cultures for microscopy contained a 22 mm diameter coverslip with a 12 mm coverslip on top. After three days, the cells reached confluence and differentiation medium (DM) was added. DM was alpha MEM medium containing 10% FBS, 1% antibiotic solution and 1% glutamine solution, supplemented with ascorbic acid (50 μg/ml) and β-glycerol phosphate (10 mM) to induce mineralization. The cultures were then incubated for 9 more days. Microscopic examination was done at this time, using Von Kossa stain to confirm mineralization of the cultures. A critical defect in the mineralized cell layers was created by removing the 12 mm coverslips under sterile conditions and then incubating the cultures for an additional 24 hours in DM containing 4% FBS with IGF-1 (20 ng/ml), FGF-2 (0.2 ng/ml), PDGF (3 ng/ml), TGFβ (2 ng/ml) or PGE2 (2 μg/ml). At least triplicate independent biological samples in multiple experiments were carried out for data collection.
Tritiated thymidine incorporation into DNA: At the conclusion of the 24 hour incubation, the culture medium was removed and the cells were incubated for 15 minutes at 37° C. in 1 ml PBS containing tritiated thymidine (4 μCi/ml). Following this incubation, the PBS was removed and the cells washed 3 times with ice cold trichloroacetic acid (TCA) followed by ice cold ethanol and allowed to air dry. Then 1 ml of sarkosyl lysis buffer ([…] containing 1% sarkosyl) was added to each well; all the cells were solubilized after 30 minutes. Finally, after mixing the resulting solution with a pipette, radioactivity was counted in a scintillation counter and protein content was measured. The data was calculated and expressed as disintegrations per minute per microgram protein.

[2] = system: Wounded Mineralized MC3T3-E1 Cells; assay: Total protein content of wounded mineralized cultures (Bio-Rad DC protein assay); conditions: normalized to the control culture; 24 hours of treatment
Method: as §1
Protein assay: Protein concentration was determined by Bio-Rad DC™ protein assay (Bio-Rad, Hercules, Calif.) according to the manufacturer's protocol.

[3] = system: MC3T3-E1 cell monolayers; assay: Cell re-growth and migration into the coverslip defect, rhodamine phalloidin microscopy; conditions: for re-growth of cells into the defect, in words / relative migration: 24 hours after injury; for relative migration: from wound site to migrating edge
Method: as §1, with “([…]).” for “(2 ng/ml) or PGE2 (2 μg/ml).”
Microscopy: At the conclusion of the 24 hour incubation, the remaining 22 mm coverslip containing the regenerating area of the culture was removed. The specimen was rinsed five times in room temperature phosphate buffered saline (PBS) and fixed. Cells were visualized with the F-actin probe rhodamine phalloidin (Invitrogen, Carlsbad, Calif.). After rinsing in distilled water and air drying the samples, the coverslips were mounted on microscope slides using FLUOROMOUNT™ and the cells were examined and photographed. Photomicrographs were made on a Zeiss Axioskop epi-fluorescent microscope using a 40× objective. Migration was measured on the photomicrographs from the site of the wound to the migrating edge using a metric ruler (n=3) for each measurement.

[4] = system: MC3T3-E1 cells; assay: Cell growth on pre-treated nylon ribbons; conditions: up to 4 days, 0.1 mg/ml fibrinogen, HAHp, 50 ng/ml FGF-2
Method: Growth on Nylon Ribbons: 250,000 MC3T3-E1 osteoblast cells were seeded in 12-well plates containing 1 inch by 1 inch nylon ribbons pre-treated with 0.1 mg/ml fibrinogen or 1 mg/ml HA and 3 mg/ml heparin (HAHp) with or without 50 ng/ml FGF-2. Cells were visualized under 10× objective at 1 and 4 days after seeding.

[5] = system: MC3T3-E1 cells; assay: Cell proliferation on ECM protein coated wells with FGF-2, CyQuant; conditions: wells containing ECM proteins and FGF-2
Method: Cell Proliferation: Five-hundred MC3T3-E1 osteoblast like cells were plated on a 96 well plate with ECM proteins coated on the bottom of the well. Sextuplet independent samples with and without FGF-2 were each plated in wells and 500 MC3T3-E1 cells were then adhered and grown for 3 days. Cell number was measured using CyQuant assay kit. Medium was changed daily

Compound | increase of thymidine incorporation [1] | change in DNA synthesis (thymidine incorporation), in words [1] | Total Protein/Culture [2] | re-growth of cells into the defect, in words [3] | pattern of re-growth and cell morphology in the defect, in words ([3]; FGF-2 0.2 ng/ml, PGE2 10 μg/ml) | relative migration [3] | cell growth on nylon ribbon, in words [4] | MC3T3-E1 cell proliferation, in words [5]
CCCCC[C@H](O)/C=C/[C@H]1[C@H](O)CC(=O)[C@@H]1C/C=C\CCCC(=O)O [PGE2, prostaglandin E2, reference compound] | > 3.3 fold | significantly enhanced | 1.51 | showed cellular proliferation at the interface of the mature cultures and the defect | more linear pattern and formed multiple elongated pseudopodia | 3.2±0.2 mm | – | –
fibrinogen | – | – | – | – | – | – | Little or no cell proliferation | –
fibronectin | – | – | – | – | – | – | – | significantly increased
insulin-like growth factor-1 [IGF-1] | – | small and unremarkable changes | 1.19 | little and unremarkable re-growth | – | – | – | –
platelet-derived growth factor [PDGF] | – | small and unremarkable changes | 1.38 | little and unremarkable re-growth | – | – | – | –
transforming growth factor β [TGFβ] | more than 2 fold | significantly enhanced | 1.55 | showed cellular proliferation at the interface of the mature cultures and the defect | – | 1.8±0.4 mm | – | –
